Experiment [1] relates to central benzodiazepine receptors. In words: Central benzodiazepine receptor binding (test of Speth et al.). The note with it: 1000 nM of the compound. In a few lines:
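Radioligand binding by the Speth et al. method. Specific binding is total minus nonspecific binding, the latter measured with excess unlabelled ligand. Compounds screened at 1.0E-09, 1.0E-07 and 1.0E-05 M in single determination; values given as percent inhibition at 1000 nM compound.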

The target of experiment [2] is T1, α2 subtype containing GABA-A receptors (Homo sapiens, UniProt P18507+P47869).
T1 construct: expressed in transfected cells; host or cells: Xenopus laevis oocytes, cRNA injected
Description: Two-electrode voltage clamp electrophysiology in Xenopus oocytes, potentiation of GABA EC20 response, α2. It is filed as cell-based. The note with it: 100 nM compound; for activation at 0.1 µM: read-out: Percentage of potentiation alpha2. As to the method: (§1) Electrophysiology protocol: Oocytes were prepared from adult female Xenopus laevis frogs. cRNA encoding human α1, α2, α3, α5, β3 and γ2L GABAA receptor subunits was injected into the cytoplasm of stage 5 or 6 oocytes using the Robocyte Robot (Multi Channel Systems, Reutlingen, Germany). Two-electrode voltage clamp recordings were made in 96-well plates using the Robocyte Robot. Oocytes were impaled using recording heads with two glass electrodes containing 1.5 M potassium acetate and 0.5 M KCl and held at a membrane potential of −80 mV. Oocytes were continually perfused with a ND96 solution (96 mM NaCl, 2 mM KCl, 0.1 mM CaCl2, and 5 mM HEPES, pH 7.5) using a Gilson 222 XL Liquid Handler and Gilson Minipuls 3 Peristaltic Pump (Gilson Medical Electronics, Middleton, Wis., USA). The protocol consisted of three 20-s applications of GABA that gave a 20% of the maximum response (EC20: 60 μM) to allow for headroom to determine a baseline GABA response. To assess the potentiation, oocytes were first exposed to a single 1 μM chlordiazepoxide (CDP) as a potentiation standard. Oocytes with insufficient expression levels (currents below threshold) or insufficient γ2L subunit incorporation (judged by rapid desensitization upon GABA application, or by insufficient potentiation by CDP) were not included in analysis. Following this control application, a given oocyte was exposed to test compounds at 100 nM concentrations. Only one concentration of one compound was tested per oocyte. […] One skilled in the art will recognize that subtypes contribute to the effects of GABA-A modulators. Such that compounds favoring different subtypes can have different therapeutic effects. The magnitude of modulation, for example, partial modulators can influence the effects in vivo. “++” indicates a greater modulation that “+” so that at any given subtype “++” inducates a greater amount of modulation for that subtype. In some embodiments, modulation favoring alpha 1 relative to alpha2 and/or alpha 3 can have sedative hypnotic effects. In other embodiments, compounds with reduced selectivity of alpha 1 can express anxiolytic effects with less sedation. Compounds with selectivity for alpha 5 can have memory/cognition enhancing effects.

Experiment [3] deals with T2, α1 subtype containing GABA-A receptors (Homo sapiens, UniProt P14867+P18507).
T2 construct: expressed in transfected cells; host or cells: Xenopus laevis oocytes, cRNA injected
Description: Two-electrode voltage clamp electrophysiology in Xenopus oocytes, potentiation of GABA EC20 response, α1. It is filed as cell-based. The note with it: 100 nM compound; for activation at 0.1 µM: read-out: Percentage of potentiation alpha1. The method, then:
as §1

T2 sequence (P14867 28-456): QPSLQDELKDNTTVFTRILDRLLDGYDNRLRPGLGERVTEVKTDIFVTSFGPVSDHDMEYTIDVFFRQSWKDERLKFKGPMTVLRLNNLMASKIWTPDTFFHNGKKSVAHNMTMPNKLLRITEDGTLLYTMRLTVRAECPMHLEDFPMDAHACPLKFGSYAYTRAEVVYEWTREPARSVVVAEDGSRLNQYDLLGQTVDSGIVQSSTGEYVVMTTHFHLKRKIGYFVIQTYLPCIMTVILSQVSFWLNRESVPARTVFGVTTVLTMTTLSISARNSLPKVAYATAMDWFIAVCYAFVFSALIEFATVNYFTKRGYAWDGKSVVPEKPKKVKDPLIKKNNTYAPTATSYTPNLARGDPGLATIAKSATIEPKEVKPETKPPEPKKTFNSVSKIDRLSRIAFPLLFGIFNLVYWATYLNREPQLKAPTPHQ
T2 sequence (P28472 26-473 partner): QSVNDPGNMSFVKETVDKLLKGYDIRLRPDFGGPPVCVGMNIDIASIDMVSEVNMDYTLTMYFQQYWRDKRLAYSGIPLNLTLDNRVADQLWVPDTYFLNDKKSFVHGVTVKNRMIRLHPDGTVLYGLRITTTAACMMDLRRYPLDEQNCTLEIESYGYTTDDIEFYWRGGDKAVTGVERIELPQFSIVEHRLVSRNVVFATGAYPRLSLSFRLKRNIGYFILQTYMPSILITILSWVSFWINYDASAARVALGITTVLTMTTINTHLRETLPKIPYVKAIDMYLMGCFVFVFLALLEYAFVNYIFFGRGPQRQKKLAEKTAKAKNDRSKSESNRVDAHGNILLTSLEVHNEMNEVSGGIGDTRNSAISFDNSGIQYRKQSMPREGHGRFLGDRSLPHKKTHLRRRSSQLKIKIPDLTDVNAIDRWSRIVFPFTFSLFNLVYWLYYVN
T2 sequence (P18507 40-475): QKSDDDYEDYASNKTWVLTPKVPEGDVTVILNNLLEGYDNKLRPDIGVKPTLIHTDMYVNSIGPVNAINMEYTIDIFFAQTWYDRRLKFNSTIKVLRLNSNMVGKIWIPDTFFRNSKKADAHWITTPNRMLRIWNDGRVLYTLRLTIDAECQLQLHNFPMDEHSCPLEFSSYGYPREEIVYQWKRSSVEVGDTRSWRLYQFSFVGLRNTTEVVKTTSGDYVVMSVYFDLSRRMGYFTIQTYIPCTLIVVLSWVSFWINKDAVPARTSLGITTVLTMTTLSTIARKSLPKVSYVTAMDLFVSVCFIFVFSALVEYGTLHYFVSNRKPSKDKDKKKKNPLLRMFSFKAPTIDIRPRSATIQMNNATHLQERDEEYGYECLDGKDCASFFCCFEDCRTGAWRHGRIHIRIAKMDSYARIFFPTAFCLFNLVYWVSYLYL
T1 sequence (P47869 29-451): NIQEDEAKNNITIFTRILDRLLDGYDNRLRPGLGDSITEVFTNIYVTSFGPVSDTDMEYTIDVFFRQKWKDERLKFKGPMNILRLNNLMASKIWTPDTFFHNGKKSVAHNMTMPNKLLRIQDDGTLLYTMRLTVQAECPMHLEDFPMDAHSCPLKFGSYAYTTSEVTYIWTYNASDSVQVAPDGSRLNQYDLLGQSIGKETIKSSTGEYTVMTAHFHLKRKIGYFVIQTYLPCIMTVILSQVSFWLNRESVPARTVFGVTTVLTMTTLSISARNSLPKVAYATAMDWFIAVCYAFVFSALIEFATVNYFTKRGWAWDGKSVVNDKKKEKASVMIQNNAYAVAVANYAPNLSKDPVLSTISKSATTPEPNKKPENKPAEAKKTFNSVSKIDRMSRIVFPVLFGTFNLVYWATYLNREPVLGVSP
T1 sequence (P28472 26-473 partner): as the sequence (P28472 26-473 partner) above
T1 sequence (P18507 40-475): as the sequence (P18507 40-475) above

Regarding `Cc1nnc(Cc2c(-c3ccccc3)nc3ccc(Cl)cn23)[nH]1` [Compound 234, 6-chloro-3-((5-methyl-4H-1,2,4-triazol-3-yl)methyl)-2-phenylimidazo[1,2-a]pyridine], the “% Inhibition at 1000 nM for CBZD” value in experiment [1] is reported as “++ (percentage of inhibition of central BZD site binding is greater than 80% in the presence of 1000 nM of the compound)”. Also, the results for the activation at 0.1 µM in experiment [2] and in experiment [3] were no less than 50% and 10 to 50%, respectively.
The corresponding values for `CN1CCN(C2=CC(=O)N(Cc3c(-c4ccc(Cl)cc4)nc4ccccn34)C2)CC1` [Compound 238, 1-((2-(4-chlorophenyl)imidazo[1,2-a]pyridin-3-yl)methyl)-4-(4-methylpiperazin-1-yl)-1H-pyrrol-2(5H)-one] are “++ (percentage of inhibition of central BZD site binding is greater than 80% in the presence of 1000 nM of the compound)”, 10 to 50% and 10 to 50%.
With `CN(C)CCNc1cc(Cc2c(-c3ccc(Cl)cc3)nc3ccccn23)ncn1` [Compound 243, N^1-(6-((2-(4-chlorophenyl)imidazo[1,2-a]pyridin-3-yl)methyl)pyrimidin-4-yl)-N^2,N^2-dimethylethane-1,2-diamine], the “% Inhibition at 1000 nM for CBZD” value in experiment [1] was “++ (percentage of inhibition of central BZD site binding is greater than 80% in the presence of 1000 nM of the compound)”. Besides, the activation at 0.1 µM in experiment [2] and in experiment [3] was 10 to 50% each time.
Consider `CCOC(=O)c1cc(C)n(Cc2c(-c3ccc(Cl)cc3)nc3ccccn23)n1` [Compound 29, ethyl 1-((2-(4-chlorophenyl)imidazo[1,2-a]pyridin-3-yl)methyl)-5-methyl-1H-pyrazole-3-carboxylate], for which, in experiment [1], the “% Inhibition at 1000 nM for CBZD” value was “++ (percentage of inhibition of central BZD site binding is greater than 80% in the presence of 1000 nM of the compound)”. The activation at 0.1 µM in experiment [2] and in experiment [3] was no less than 50% throughout.
On to `Fc1ccc(-c2nc3ccc(Cl)cn3c2Cn2cncn2)cc1` [Compound 62, 3-((1H-1,2,4-triazol-1-yl)methyl)-6-chloro-2-(4-fluorophenyl)H-imidazo[1,2-a]pyridine], for which the “% Inhibition at 1000 nM for CBZD” value in experiment [1] is reported as “++ (percentage of inhibition of central BZD site binding is greater than 80% in the presence of 1000 nM of the compound)”. Further, in experiment [2], the “Percentage of potentiation alpha2” value is 0 (percentage of potentiation is between about 10% to about −10%). For the same molecule, the “Percentage of potentiation alpha1” value in experiment [3] is on record as “+ (percentage of potentiation is greater than or equal to 10% but less than 50% in the presence of 100 nM of the compound)”.
Regarding `Cn1c(=O)ccn(Cc2c(-c3ccc(Cl)cc3)nc3ccccn23)c1=O` [Compound 125, 1-((2-(4-chlorophenyl)imidazo[1,2-a]pyridin-3-yl)methyl)-3-methylpyrimidine-2,4(1H,3H)-dione], the “% Inhibition at 1000 nM for CBZD” value in experiment [1] is “++ (percentage of inhibition of central BZD site binding is greater than 80% in the presence of 1000 nM of the compound)”. Moreover, the activation at 0.1 µM in experiment [2] was 10 to 50%; in experiment [3] it was -10 to 10%.
The matching figures for `CNC(=O)c1ncnn1Cc1c(-c2ccc(Cl)cc2)nc2cccnn12` [Compound 90, 1-((2-(4-chlorophenyl)imidazo[1,2-b]pyridazin-3-yl)methyl)-N-methyl-1H-1,2,4-triazole-5-carboxamide]: “++ (percentage of inhibition of central BZD site binding is greater than 80% in the presence of 1000 nM of the compound)”, 10 to 50% and 10 to 50%.
In the case of `Cc1cc(Cl)nc(NCc2c(-c3ccc(Cl)cc3)nc3ccccn23)n1` [Compound 159, 4-chloro-N-((2-(4-chlorophenyl)imidazo[1,2-a]pyridin-3-yl)methyl)-6-methylpyrimidin-2-amine], the “% Inhibition at 1000 nM for CBZD” value in experiment [1] is given as “++ (percentage of inhibition of central BZD site binding is greater than 80% in the presence of 1000 nM of the compound)”. Besides, the activation at 0.1 µM in experiment [2] and in experiment [3] was 10 to 50% in each case.
`Cc1ccc(-c2nc3ccc(C)cn3c2CNc2nccs2)cc1` [Compound 150, N-((6-methyl-2-p-tolylH-imidazo[1,2-a]pyridin-3-yl)methyl)thiazole-2-amine]: the “% Inhibition at 1000 nM for CBZD” value in experiment [1] is reported as “++ (percentage of inhibition of central BZD site binding is greater than 80% in the presence of 1000 nM of the compound)”. For the same molecule, the “Percentage of potentiation alpha2” value in experiment [2] is given as “+ (percentage of potentiation is greater than or equal to 10% but less than 50% in the presence of 100 nM of the compound)”. Moreover, the “Percentage of potentiation alpha1” value in experiment [3] was 0 (percentage of potentiation is between about 10% to about −10%).
On to `OC1CCN(c2cncc(Cc3c(-c4ccc(Cl)cc4)nc4ccccn34)n2)C1` (stereo not drawn) [Compound 191, 1-(6-((2-(4-chlorophenyl)imidazo[1,2-a]pyridin-3-yl)methyl)pyrazin-2-yl)pyrrolidin-3-ol], for which the “% Inhibition at 1000 nM for CBZD” value in experiment [1] was “++ (percentage of inhibition of central BZD site binding is greater than 80% in the presence of 1000 nM of the compound)”. The activation at 0.1 µM in experiment [2] and in experiment [3] was 10 to 50% each time.
In the case of `CNC(=O)c1nccn1Cc1c(-c2ccc(Cl)cc2)nc2cccnn12` [Compound 88, 1-((2-(4-chlorophenyl)imidazo[1,2-b]pyridazin-3-yl)methyl)-N-methyl-1H-imidazole-2-carboxamide], the “% Inhibition at 1000 nM for CBZD” value in experiment [1] was “++ (percentage of inhibition of central BZD site binding is greater than 80% in the presence of 1000 nM of the compound)”. The activation at 0.1 µM is 10 to 50% in experiment [2] and -10 to 10% in experiment [3].
Take `Cc1nnc(Cc2c(-c3ccc(Cl)cc3)nc3ccccn23)o1` [Compound 204, 2-((2-(4-chlorophenyl)imidazo[1,2-a]pyridin-3-yl)methyl)-5-methyl-1,3,4-oxadiazole]: in experiment [1], the “% Inhibition at 1000 nM for CBZD” value was “++ (percentage of inhibition of central BZD site binding is greater than 80% in the presence of 1000 nM of the compound)”. Also, the activation at 0.1 µM in experiment [2] was 10 to 50%; in experiment [3], -10 to 10%.
The matching figures for `O=c1ccn(Cc2c(-c3ccc(Cl)cc3)nc3ccccn23)c(=O)[nH]1` [Compound 123, 1-((2-(4-chlorophenyl)imidazo[1,2-a]pyridin-3-yl)methyl)pyrimidine-2,4(1H,3H)-dione]: “++ (percentage of inhibition of central BZD site binding is greater than 80% in the presence of 1000 nM of the compound)”, 10 to 50% and 10 to 50%.
On to `CN(C)CCNC1=CC(=O)N(Cc2c(-c3ccc(Cl)cc3)nc3ccccn23)C1` [Compound 237, 1-((2-(4-chlorophenyl)imidazo[1,2-a]pyridin-3-yl)methyl)-4-(2-(dimethylamino)ethylamino)-1H-pyrrol-2(5H)-one], for which, in experiment [1], the “% Inhibition at 1000 nM for CBZD” value is recorded as “++ (percentage of inhibition of central BZD site binding is greater than 80% in the presence of 1000 nM of the compound)”. Also, the activation at 0.1 µM was 10 to 50% in experiment [2] and -10 to 10% in experiment [3].
The corresponding values for `O=c1c2ccccc2[nH]n1Cc1c(-c2ccc(Cl)cc2)nc2ccccn12` [Compound 118, 2-((2-(4-chlorophenyl)imidazo[1,2-a]pyridin-3-yl)methyl)-1H-indazol-3(2H)-one] are “++ (percentage of inhibition of central BZD site binding is greater than 80% in the presence of 1000 nM of the compound)”, no less than 50% and 10 to 50%.
